Tests used:
[1] = target: T1, Adenosine receptor A1 (Homo sapiens) (UniProt P30542); assay: Displacement of [3H]CCPA from human adenosine A1 receptor expressed in CHO cells at 10 uM; type: cell-based
T1 sequence (whole entry): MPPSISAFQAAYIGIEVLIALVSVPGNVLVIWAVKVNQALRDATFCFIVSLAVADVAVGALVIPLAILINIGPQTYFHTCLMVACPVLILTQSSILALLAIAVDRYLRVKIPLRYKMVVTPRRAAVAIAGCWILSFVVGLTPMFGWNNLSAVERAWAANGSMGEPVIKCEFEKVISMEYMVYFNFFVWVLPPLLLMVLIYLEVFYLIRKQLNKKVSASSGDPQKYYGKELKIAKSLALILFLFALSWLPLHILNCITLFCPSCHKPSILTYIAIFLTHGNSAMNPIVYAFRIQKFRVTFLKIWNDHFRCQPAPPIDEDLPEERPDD

Adenosine receptor A2a [2] = target: T2, Adenosine receptor A2a (Homo sapiens, UniProt P29274); assay: Displacement of [3H]CGS21680 from human adenosine A2A receptor in HEK293 cells; type: cell-based
Adenosine receptor A2a [3] = target: T2, Adenosine receptor A2a; assay: Displacement of [3H]CGS21680 from human adenosine A2A receptor in HEK293 cells at 10 uM; type: cell-based
Adenosine receptor A3 = target: T3, Adenosine receptor A3 (Homo sapiens, UniProt P0DMS8); assay: Displacement of [125I]I-AB-MECA from human adenosine A3 receptor expressed in CHO cells […]; type: cell-based
T3 sequence (P0DMS8 whole entry): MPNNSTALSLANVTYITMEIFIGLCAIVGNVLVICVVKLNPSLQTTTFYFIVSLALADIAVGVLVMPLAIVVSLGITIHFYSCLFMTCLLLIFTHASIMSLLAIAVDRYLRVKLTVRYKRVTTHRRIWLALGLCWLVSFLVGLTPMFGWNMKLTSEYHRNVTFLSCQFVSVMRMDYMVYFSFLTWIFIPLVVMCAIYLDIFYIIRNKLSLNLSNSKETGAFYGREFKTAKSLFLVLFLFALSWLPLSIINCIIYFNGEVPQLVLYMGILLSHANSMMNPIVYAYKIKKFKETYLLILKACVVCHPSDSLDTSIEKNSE

Adenosine receptor A2a [4] = target: T2, Adenosine receptor A2a; assay: Agonist activity at human adenosine A2A receptor expressed in CHO cells by cyclic AMP functional assay; type: cell-based
[5] = target: T4, Adenosine receptor A3 (Homo sapiens) (UniProt P0DMS8); assay: Antagonistic activity at human adenosine A3 receptor expressed in CHO cells assessed as inhibition of Cl-IB-MECA mediated cyclic AMP production by Schild assay; type: functional, cell-based
T4 sequence (whole entry): T3 sequence (P0DMS8 whole entry)

Adenosine receptor A2b = target: T5, Adenosine receptor A2b (Homo sapiens, UniProt P29275); assay: Agonist activity at human adenosine A2B receptor expressed in CHO cells by cyclic AMP functional assay; type: cell-based
T5 sequence (P29275 whole entry): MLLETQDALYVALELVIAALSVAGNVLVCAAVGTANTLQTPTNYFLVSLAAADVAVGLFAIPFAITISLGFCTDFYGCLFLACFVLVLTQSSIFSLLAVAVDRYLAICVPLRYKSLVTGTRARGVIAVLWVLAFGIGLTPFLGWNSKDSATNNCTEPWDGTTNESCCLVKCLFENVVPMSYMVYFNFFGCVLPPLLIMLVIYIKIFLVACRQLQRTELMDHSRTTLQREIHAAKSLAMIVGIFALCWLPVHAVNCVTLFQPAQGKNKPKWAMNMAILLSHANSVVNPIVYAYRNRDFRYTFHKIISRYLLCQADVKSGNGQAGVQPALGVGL

T2 sequence (P29274 whole entry): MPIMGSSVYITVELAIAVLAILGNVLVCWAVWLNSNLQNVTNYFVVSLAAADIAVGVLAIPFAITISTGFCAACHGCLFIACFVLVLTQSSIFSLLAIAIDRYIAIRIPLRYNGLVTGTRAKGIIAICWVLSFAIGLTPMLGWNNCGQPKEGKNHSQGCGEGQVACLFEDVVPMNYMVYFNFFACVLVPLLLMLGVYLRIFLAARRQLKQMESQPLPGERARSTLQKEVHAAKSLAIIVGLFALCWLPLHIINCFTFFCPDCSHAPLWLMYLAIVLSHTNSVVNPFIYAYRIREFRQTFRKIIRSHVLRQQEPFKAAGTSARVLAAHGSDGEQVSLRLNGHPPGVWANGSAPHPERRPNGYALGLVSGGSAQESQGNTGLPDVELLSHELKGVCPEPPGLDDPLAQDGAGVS

Row | inhibition [1] [%] | Ki (Adenosine receptor A2a [2]) [µM] | inhibition (Adenosine receptor A2a [3]) [%] | Ki (Adenosine receptor A3) [µM] | EC50 (Adenosine receptor A2a [4]) [µM] | Kb [5] [µM] | EC50 (Adenosine receptor A2b) [µM] | SMILES
1 | 16.2 | 0.072 | 95.9 | 0.0132 |  |  |  | CCCC/C=C/c1nc(N)c2ncn([C@@H]3SC[C@@H](O)[C@H]3O)c2n1
2 | 38.9 |  | 97.2 |  | 0.012 | 0.00169 | 10 | CCCCC#Cc1nc(N)c2ncn([C@@H]3SC[C@@H](O)[C@H]3O)c2n1
3 | 3.7 |  | 22.8 | 0.259 |  |  |  | CCCC/C=C/c1nc2c(N)ncnc2n1[C@@H]1SC[C@@H](O)[C@H]1O
4 | 49.3 |  | 46.5 | 0.02 |  |  |  | CCCCC#Cc1nc2c(N)ncnc2n1[C@@H]1SC[C@@H](O)[C@H]1O

Reference: ChEMBL document CHEMBL1687702, “Discovery of New Human A(2A) Adenosine Receptor Agonists: Design, Synthesis, and Binding Mode of Truncated 2-Hexynyl-4'-thioadenosine” (ACS Med Chem Lett, 2010)
